{
  "source": "patent US10155755B2",
  "about": "“Quinuclidine derivative” (LTT BIO-PHARMA CO., LTD., priority 2015, dated 2018)",
  "key": {"[1]": {"system": "porcine pancreatic elastase-induced inflammation", "test": "Effect on porcine pancreatic elastase-induced inflammation (total cells in BALF)", "assay_type": "in vivo", "settings": "single transairway dose 1 hour before porcine pancreatic elastase 100 μg/mouse; BALF 24 hours after elastase; ICR mice", "protocol": "To 4 to 6-week old ICR mice, a test compound was administered once through the transairway. Porcine pancreatic elastase at 100 μg/mouse was administered 1 hour after the administration of the test compound. Bronchoalveolar lavage fluid (BALF) was collected from the lungs 24 hours after the administration of porcine pancreatic elastase, and the total number of cells was measured."}, "[2]": {"target": "T1, human M3 receptor (Homo sapiens, UniProt P20309)", "T1 construct": "expressed in transfected cells; host or cells: CHO cells (membrane preparation)", "T1 sequence (P20309 whole entry)": "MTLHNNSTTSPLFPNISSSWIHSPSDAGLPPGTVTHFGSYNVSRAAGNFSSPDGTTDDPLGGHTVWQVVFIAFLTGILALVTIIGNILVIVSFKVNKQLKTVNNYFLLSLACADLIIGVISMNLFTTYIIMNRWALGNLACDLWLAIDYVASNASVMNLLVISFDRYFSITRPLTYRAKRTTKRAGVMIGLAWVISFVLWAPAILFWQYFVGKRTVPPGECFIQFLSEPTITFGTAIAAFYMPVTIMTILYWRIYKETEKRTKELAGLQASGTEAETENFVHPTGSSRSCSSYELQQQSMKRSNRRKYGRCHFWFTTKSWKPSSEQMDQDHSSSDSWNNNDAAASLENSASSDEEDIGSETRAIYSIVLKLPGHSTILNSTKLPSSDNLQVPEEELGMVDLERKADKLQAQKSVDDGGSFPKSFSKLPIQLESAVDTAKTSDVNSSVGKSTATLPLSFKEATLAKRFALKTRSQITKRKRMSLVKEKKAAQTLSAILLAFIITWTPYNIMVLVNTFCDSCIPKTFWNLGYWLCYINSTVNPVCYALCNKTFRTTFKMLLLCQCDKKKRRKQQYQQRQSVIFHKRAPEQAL", "test": "Human M3 receptor antagonist activity, [3H]NMS receptor binding", "protocol": "Measurement of the receptor binding ability was performed by using a transgenic human M3 receptor expression CHO cell membrane, 1-[N-methyl-^3H] scopolamine methyl bromide ([^3H]NMS, specific activity of 82 Cimmol). Protein concentration of the cell membrane was 2 μg per well, concentration of the [^3H]NMS was 1.0 nM.\nRange of the antagonist concentration (10^−4 to 10^−11 M) was tested by creating a comparison curve. Unspecific binding was measured in the presence of 1 μM of atropine.\nThe reagent was adjusted to a total volume of 100 μL with a binding buffer (phosphate buffer/saline). The mixture was incubated at room temperature for 2 hours so as to reach equilibrium, and then the resultant mixture was transplanted to a GF/C filter plate that had been pretreated with a washing buffer containing 0.05% polyethyleneimine for 1 hour.\nThe bound [^3H]NMS and the free[^3H]NMS were separated by rapid vacuum filtration, and washed three times with a rinse buffer (50 mM of Tris, 100 mM of saline, and pH of 7.4). The obtained filter was dried, and then onto the dried filter, a solid scintillator, MeltiLex A (manufactured by PerkinElmer, Inc.) was fused, and the measurement and quantification were performed by using a β-counter (MicroBeta microplate scintillation counter (Trilux)).\nThe Ki value was calculated by the following equation."}, "[3]": {"system": "methacholine-induced airway constriction", "test": "Effect on methacholine-induced airway constriction (airway resistance)", "assay_type": "in vivo", "settings": "47.9 μg/kg transairway, when exceeding 96 hours after the administration, ICR mice (FIG. 2)", "protocol": "The increase of airway resistance by methacholine induction was measured. To 4 to 6-week old ICR mice, methacholine at 1 mg/mL was administered 5 times by spraying the methacholine for 20 seconds. After completion of the methacholine administration, the airway resistance was measured by a snap shot technique. All of the data were analyzed by using FlexiVent software.\nThe test compound at 47.9 μg/kg was administered to the mice through the transairway. The mice were exposed 5 times to nebulized methacholine 1 hour, 96 hours, and 120 hours after the administration, and the airway resistance at each time was measured."}},
  "data": [
    {"smiles": "O=C(O[C@H]1C[N+]2(CCCc3ccccc3)CCC1CC2)C(O)(c1ccccc1)c1ccccc1", "note": "[Compound 1-18]", "values": [
      {"measurement": "total number of cells in BALF", "setting": "[1]", "value": "reduced in a dose-dependent manner"}
    ]},
    {"smiles": "O=C(OC1C[N+]2(CCOc3ccccc3Br)CCC1CC2)C(O)(c1ccccc1)c1ccccc1", "note": "(centres unmarked) [Compound 1-6]", "values": [
      {"measurement": "Ki", "setting": "[2]", "value": 0.458, "unit": "nM"}
    ]},
    {"smiles": "Cc1ccc(OCCC[N+]23CCC(CC2)C(OC(=O)C(O)(c2ccccc2)c2ccccc2)C3)cc1", "note": "(centres unmarked) [Compound 1-33]", "values": [
      {"measurement": "Ki", "setting": "[2]", "value": 0.058, "unit": "nM"}
    ]},
    {"smiles": "O=C(OC1C[N+]2(CCCOc3ccc(C(F)(F)F)cc3)CCC1CC2)C(O)(c1ccccc1)c1ccccc1", "note": "(centres unmarked) [Compound 1-34]", "values": [
      {"measurement": "Ki", "setting": "[2]", "value": 2.7, "unit": "nM"}
    ]},
    {"smiles": "O=C(O[C@H]1C[N+]2(CCCOc3ccccc3)CCC1CC2)C(O)(c1cccs1)c1cccs1", "note": "[aclidinium, reference compound]", "values": [
      {"measurement": "airway resistance after methacholine", "setting": "[3]", "value": "did not reduce the airway resistance"},
      {"measurement": "total number of cells in BALF", "setting": "[1]", "value": "did not show any beneficial anti-inflammatory effects"}
    ]},
    {"smiles": "O=C(OC1C[N+]2(CCOc3ccccc3F)CCC1CC2)C(O)(c1ccccc1)c1ccccc1", "note": "(centres unmarked) [Compound 1-4]", "values": [
      {"measurement": "Ki", "setting": "[2]", "value": 0.114, "unit": "nM"}
    ]},
    {"smiles": "O=C(OC1C[N+]2(CCOCc3ccccc3)CCC1CC2)C(O)(c1ccccc1)c1ccccc1", "note": "(centres unmarked) [Compound 1-41]", "values": [
      {"measurement": "Ki", "setting": "[2]", "value": 0.12, "unit": "nM"}
    ]},
    {"smiles": "O=C(OC1C[N+]2(CCCOc3ccc(Br)cc3)CCC1CC2)C(O)(c1ccccc1)c1ccccc1", "note": "(centres unmarked) [Compound 1-31]", "values": [
      {"measurement": "Ki", "setting": "[2]", "value": 0.32, "unit": "nM"}
    ]},
    {"smiles": "O=C(OC1C[N+]2(CCCc3ccccc3)CCC1CC2)C(O)(c1ccccc1)c1ccccc1", "note": "(centres unmarked) [Compound 1-20]", "values": [
      {"measurement": "total number of cells in BALF", "setting": "[1]", "value": "reduced in a dose-dependent manner"}
    ]},
    {"smiles": "O=C(OC1C[N+]2(CCOc3ccccc3Cl)CCC1CC2)C(O)(c1ccccc1)c1ccccc1", "note": "(centres unmarked) [Compound 1-5]", "values": [
      {"measurement": "Ki", "setting": "[2]", "value": 2.39, "unit": "nM"}
    ]},
    {"smiles": "O=C(OC1C[N+]2(CCCOc3ccc(I)cc3)CCC1CC2)C(O)(c1ccccc1)c1ccccc1", "note": "(centres unmarked) [Compound 1-32]", "values": [
      {"measurement": "Ki", "setting": "[2]", "value": 0.22, "unit": "nM"}
    ]},
    {"smiles": "O=C(OC1C[N+]2(CCCOc3ccc(F)cc3)CCC1CC2)C(O)(c1ccccc1)c1ccccc1", "note": "(centres unmarked) [Compound 1-29]", "values": [
      {"measurement": "Ki", "setting": "[2]", "value": 0.19, "unit": "nM"}
    ]},
    {"smiles": "COc1ccc(OCCC[N+]23CCC(CC2)C(OC(=O)C(O)(c2ccccc2)c2ccccc2)C3)cc1", "note": "(centres unmarked) [Compound 1-35]", "values": [
      {"measurement": "Ki", "setting": "[2]", "value": 5.89, "unit": "nM"}
    ]},
    {"smiles": "O=C(O[C@@H]1C[N+]2(CCCc3ccccc3)CCC1CC2)C(O)(c1ccccc1)c1ccccc1", "note": "[Compound 1-19]", "values": [
      {"measurement": "total number of cells in BALF", "setting": "[1]", "value": "reduced in a dose-dependent manner"}
    ]},
    {"smiles": "O=C(OC1C[N+]2(CCCOc3ccc(OC(F)(F)F)cc3)CCC1CC2)C(O)(c1ccccc1)c1ccccc1", "note": "(centres unmarked) [Compound 1-36]", "values": [
      {"measurement": "Ki", "setting": "[2]", "value": 0.39, "unit": "nM"}
    ]},
    {"smiles": "O=C(OC1C[N+]2(CCCOc3ccc(Cl)cc3)CCC1CC2)C(O)(c1ccccc1)c1ccccc1", "note": "(centres unmarked) [Compound 1-30]", "values": [
      {"measurement": "Ki", "setting": "[2]", "value": 0.084, "unit": "nM"}
    ]}
  ]
}
